Laboratory results taken from ChEMBL document CHEMBL1149509, “Search of antitubercular activities in tetrahydroacridines: synthesis and biological evaluation” (Bioorg Med Chem Lett, 2006).
Values after ≈ are worked out from the molar mass of the structure shown.

Key:
[1] = tested on: Mycobacterium tuberculosis; assay: Antitubercular activity against Mycobacterium tuberculosis H37Ra; assay type: functional
[2] = tested on: Mycobacterium tuberculosis; assay: Antitubercular activity against Mycobacterium tuberculosis H37Rv; assay type: functional
[3] = Partition coefficient, log P of the compound; assay type: physicochemical; conditions: octanol/water

Structure (SMILES)	MIC [1] [µg/mL]	MIC [2] [µg/mL]	logP ([3]; read-out: LogP)	logP [3]
c1ccc2c(NCCCCCNc3c4c(nc5ccccc35)CCCC4)c3c(nc2c1)CCCC3	25 (≈ 53.8 µM)	12.5 (≈ 26.9 µM)	7.15	
Clc1ccc(Oc2c3c(nc4ccccc24)CCCC3)cc1	> 25	> 12.5	5.81	
Clc1ccc(Oc2c3c(nc4ccccc24)CCCC3)c(Cl)c1	> 25	> 12.5	6.37	
CCCCCCCCCCCCNc1c2c(nc3ccccc13)CCCC2	6.25 (≈ 17 µM)	0.78 (≈ 2.13 µM)	7.79	
C=CCc1ccc(Oc2c3c(nc4ccccc24)CCCC3)c(OC)c1	25 (≈ 72.4 µM)	> 12.5	6.18	
CCCCCCCCNc1c2c(nc3ccccc13)CCCC2	1.56 (≈ 5.02 µM)	3.12 (≈ 10 µM)	6.12	
COc1ccc(Nc2c3c(nc4ccccc24)CCCC3)cc1	> 25	> 12.5	5.05	
OCCNc1c2c(nc3ccccc13)CCCC2	> 25	12.5 (≈ 51.6 µM)	2.69	
CCCCCCNc1c2c(nc3ccccc13)CCCC2	6.25 (≈ 22.1 µM)	6.25 (≈ 22.1 µM)	5.29	
c1ccc(Sc2c3c(nc4ccccc24)CCCC3)cc1	> 25	> 12.5	5.82	
c1ccc(CNc2c3c(nc4ccccc24)CCCC3)cc1	25 (≈ 86.7 µM)	> 12.5	4.94	
Fc1ccc(Oc2c3c(nc4ccccc24)CCCC3)cc1	> 25	> 12.5	5.41	
c1ccc2c(NCCCCCCCNc3c4c(nc5ccccc35)CCCC4)c3c(nc2c1)CCCC3	6.25 (≈ 12.7 µM)	12.5 (≈ 25.4 µM)	7.99	
Cc1ccc(Oc2c3c(nc4ccccc24)CCCC3)cc1C	> 25	> 12.5	6.23	
c1ccc2c(NCCCCCCCCCCNc3c4c(nc5ccccc35)CCCC4)c3c(nc2c1)CCCC3	3.12 (≈ 5.83 µM)	12.5 (≈ 23.4 µM)		9.24
c1ccc2c(N3CCOCC3)c3c(cc2c1)CCCC3	> 25	12.5 (≈ 46.8 µM)	3.6	
Clc1cccc(CCNc2c3c(nc4ccccc24)CCCC3)c1	25 (≈ 74.2 µM)	> 12.5	5.78	
CC[C@@H](CO)NCCN[C@@H](CC)CO [ETHAMBUTOL]		3.25 (≈ 15.9 µM)		
NNC(=O)c1ccncc1 [ISONIAZID]		0.65 (≈ 4.74 µM)		
CO[C@H]1/C=C/O[C@@]2(C)Oc3c(C)c(O)c4c(O)c(c(/C=N/N5CCN(C)CC5)c(O)c4c3C2=O)NC(=O)/C(C)=C\C=C\[C@H](C)[C@H](O)[C@@H](C)[C@@H](O)[C@@H](C)[C@H](OC(C)=O)[C@@H]1C [RIFAMPIN]		0.75 (≈ 0.911 µM)		
